The values below come from US9199976B2, “Haematopoietic-prostaglandin D2 synthase inhibitors” (The University of Queensland, priority 2010, dated 2015).

The nature of data set [1]: Rat pharmacokinetics, plasma concentration after oral dosing. Format: in vivo, Sprague Dawley rat. The conditions noted are these: single oral 40 mg/kg; for Concentration (individual rat): rat plasma. As for the experimental part:
Male adult Sprague Dawley rates (˜165 g) received a single oral bolus dose of 40 mg/kg of compound 3 in a 0.5% methylcellulose/0.1% Tween80 by oral gavage. Rats were sacrificed when collecting blood and spleen samples just prior to dosing and at 0.5 hours, 2 h, 8 h and 24 h (n=3 rats per time point), and the plasma concentration of compound 3 and the spleen PGD2 concentration was measured at each time point.
Blood samples were removed and kept cold at approximately 4° C. immediately after collection to minimize degradation and centrifuged as soon as possible at approximately 4000×g for 10 min. The plasma was transferred to a clean, pre-labelled polypropylene tube and frozen. Samples were stored at −20° C. as soon as possible after collection to minimise degradation of the test item.
Plasma concentrations of 3 were determined using a screening LC-ms/ms method developed using the following parameters:
Samples were analysed alongside plasma standards. Concentration data were determined by back calculation from standard curve.

Data set [2] has as its system LPS-inducible TXB2 (thromboxane A2 derivative) production from BMM. Nature of the data set: TXB2 production in LPS-activated BMM (EIA). Format: cell-based. The conditions noted are these: LPS-activated mouse BMM, 24 h. How it is done:
(§1) All bone marrow-derived macrophages (BMM) were obtained by culturing bone marrow cells from the femurs of 6 to 8 week old C57BL/6 male mice in RPMI 1640 medium (Invitrogen Life Technologies, Carlsbad, Calif., USA) supplemented with 10% Fetal calf serum (Invitrogen) 20 U/ml penicillin and 20 μg/ml streptomycin (Invitrogen), 2 mM L-glutamine (Glutamax-1, Invitrogen) in the presence of 10^4 U/ml (100 ng/mL) recombinant human CSF-1 (a gift from Chiron, Emeryville, Calif.) on bacteriological plastic plates for 7 days. The human megakaryocytic cell line MEG-01S was obtained from the American Type Culture Collection. MEG-01S were maintained in the same media as for BMM, supplemented with 1 mM Sodium Pyruvate (Invitrogen).
(§2) BMM were seeded overnight at 2×10^5 cells/ml in 24 well plates before treatment with compound at either 10 μM or 0.1-100 μM for 24 h in the presence or absence of lipopolysaccharide (LPS) from Salmonella Minnesota (Sigma-Aldrich) at a final concentration of 10 ng/ml. […] Supernatants were collected and samples were analysed for PGD2 using Prostaglandin D2 Mox Express EIA kits, PGE2 using Prostaglandin E2 Express EIA kits, the prostacyclin derivative 6-keto PGF1α using the 6-keto Prostaglandin F1α EIA Kit and the Thromboxane A2 derivative TXB2 using the Thromboxane B2 Express EIA kit (Cayman Chemical) according to the manufacturer's instructions. […]

The test system of data set [3] is MEG-01S cells. In words: MEG-01S cell viability by MTT assay. Type of data set: cell-based, human. To be noted: 24 h, 0-100 μM. How it is done:
as §1
(§3) Known inhibitors 1 and 2, along with compound 3, were used to treat BMM at three doses (10, 30, 100 μM) in the presence of LPS for 24 h and cell viability was measured by MTT assay. BMM were seeded at 1×10^5 cells/well in 96 well plates and treated for 24 h with LPS (10 ng/ml) and compounds at 10, 30 and 100 μM. MEG-01S were PMA differentiated overnight before compounds were added for a further 24 h at 10, 30 and 100 μM. Cell viability was measured by MTT (Sigma-Aldrich) assay as described previously (Irvine, FASEB J, 2006).
The effect of the compounds on MEG-01S cell viability was measured by MTT assay after 24 h treatment across the concentration range 0-100 μM of compounds (FIG. 3B). Data represent the average of 4 independent experiments plus SEM.
(Formazan colour is commonly taken as a measure of viable cells.)

Data set [4] has as its system LPS-inducible PGE2 production from BMM. Nature of the data set: PGE2 production in LPS-activated BMM (EIA). Type of data set: cell-based. To be noted: LPS-activated mouse BMM, 24 h. How it is done:
as §1, §2

The test system of data set [5] is PGD2 production from MEG-01S human megakaryocytes. Nature of the data set: A23187-inducible PGD2 production in PMA-differentiated MEG-01S (EIA). Type of data set: cell-based. To be noted: 0-100 μM. As for the experimental part:
as §1, §2

Data set [6] relates to BMM. In words: BMM cell viability by MTT assay. Format: cell-based, mouse. The conditions noted are these: LPS 10 ng/ml, 24 h, 10-100 μM. As for the experimental part: as §1, §3
The test system of data set [7] is LPS-inducible 6-keto PGF1α (prostacyclin derivative) production from BMM. Nature of the data set: 6-keto PGF1α production in LPS-activated BMM (EIA). Format: cell-based. To be noted: LPS-activated mouse BMM, 24 h. As for the experimental part:
as §1, §2

Data set [8] relates to PGD2 production in mouse primary bone marrow-derived macrophages (BMM). Nature of the data set: PGD2 production in LPS-activated BMM (EIA). Type of data set: cell-based. As for the experimental part: as §1, with “(Invitrogen). […] The average PGD2 production from three independent experiments plus SEM is shown. * indicates p<0.05 versus LPS treatment alone. (Student's t test).” for “(Invitrogen).”

Data set [9] concerns the target H-PGDS (Homo sapiens (Human), UniProt O60760). Nature of the data set: H-PGDS catalyzed conjugation of GSH and CDNB, enzyme inhibition assay. Format: biochemical. The conditions noted are these: 50 μM compound; mean ± standard error of triplicate experiments; read-out: I[50], percent inhibition at 50 μM. As for the experimental part:
H-PGDS was expressed and purified as described previously (Jowsey, 2001). Briefly, H-PGDS was expressed in Escherichia coli strain BL21 DE3 transformed with the pET17b HPGDS expression construct, grown overnight at 37° C. in 250 ml of Luria-Bertani medium supplemented with 100 μg/ml ampicillin. After 24 h, without induction, bacteria were harvested by centrifugation at 5000 g for 20 min at 4° C.; cell pellets were kept at −70° C. until required. Cells were resuspended in 25 ml of ice-cold phosphate buffered saline (PBS), pH 7.4, containing 1 mM DTT, 0.5% Triton X-100 and EDTA-free protease inhibitor tablets (F. Hoffmann-La Roche, Dee Why, NSW, Australia); and incubated with rotation for 30 mins at 4° C. Cells were then lysed by sonication at 90-100 W over 3×1 min intervals, while incubated on ice; the lysate clarified by centrifugation at 18000 g for 10 min at 4° C.
The supernatant was then applied to a GSTPrep FF 16/10 column pre-equilibrated with PBS, pH 7.4, and 1 mM DTT, at 0.4 ml/minute using an AKTA explorer 100 (GE Healthcare, Rydalmere, NSW, Australia), then washed with 5 column volumes of the same buffer at 1 ml/min. Bound H-PGDS was eluted in 5 column volumes of 15 mM reduced glutathione in 50 mM Tris, pH 9.0, at 0.5 ml/min, and dialysed against 100 volumes of 5 mM TrisCl, pH 8.0. The protein was concentrated to 20 mg/ml, as determined by the method of Bradford (Bradford, 1976) using an Amicon Ultra-4 centrifugal filter device (Millipore, North Ryde, NSW, Australia) following manufacturers recommendations. Glycerol was added to a final concentration of 10% (v/v) prior to storage at −20° C.
The H-PGDS catalyzed conjugation of GSH and 1-chloro-2,4-dinitrobenzene (CDNB) was used as the biochemical assay for enzyme inhibition. Reactions were performed in 96 well plate format, and product formation was followed at A340 nm over a 10 min interval at 25° C. using a POWERWAVE XS microplate scanning spectrophotometer (Bio-Tek Instruments, Winooski, Vt., USA). Reactions were performed in 0.1 M Tris HCl, pH 8.0 containing 2 mM MgCl2, 1 mM CDNB, 2 mM GSH, 2.5 ng/μ1 purified H-PGDS and 10% (v/v) ethanol in a 200 μl reaction volume. IC50 values were calculated from rates of conjugation activity determined at eight concentration points bracketing the IC50, where compound solubility allowed, and were corrected for background activity at the same solvent concentrations. All compounds were made up in 100% DMSO and diluted with 0.1 M Tris HCl, pH 8.0 with 2 mM MgCl2. I50 and IC50 values were determined at a final DMSO composition of no greater than 4% v/v for all compounds. Non-linear regression analysis and IC50 calculations were performed using GraphPad Prism version 4.0c.

Chain of H-PGDS (O60760 whole entry): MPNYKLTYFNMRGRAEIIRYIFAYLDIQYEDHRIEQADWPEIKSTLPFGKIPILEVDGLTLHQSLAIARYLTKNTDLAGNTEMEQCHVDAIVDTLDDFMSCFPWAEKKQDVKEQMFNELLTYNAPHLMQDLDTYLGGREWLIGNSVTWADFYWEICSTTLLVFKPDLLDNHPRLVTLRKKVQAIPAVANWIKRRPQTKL

In the case of `NC(=O)[C@H](Cc1ccccc1)NC(=O)c1ccc(-c2cccs2)nc1` (stereo in doubt) [Compound 3, N-(1-amino-1-oxo-3-phenylpropan-2-yl)-6-(thiophen-2-yl)-nicotinamide], the “Concentration (individual rat)” value is 177 ng/mL in data set [1] (0.5 h) and “BLOQ^2” in [1] (24 h, BLOQ = below the lower limit of quantitation). Moreover, the “oral bioavailability” value in data set [1] (rat) was “orally bioavailable”. Further, the “concentration above which TXB2 inhibition was observed” value in [2] is on record as “above 10 μM”. Also, in data set [3], the “effect on MEG-01S cell viability” value is “little effect”. Besides, the “concentration above which PGE2 inhibition was observed” value in [4] is “above 10 μM”. The “inhibition of A23187-inducible PGD2 production” value in data set [5] is reported as “dose-dependently”. The “effect on BMM cell viability” value in data set [6] was “did not affect BMM viability”. In data set [7], the “concentration above which 6-keto PGF1α inhibition was observed” value was “above 10 μM”. Besides, the “differential effect in inhibition of PGD2 versus PGE2, 6-keto PGF1α or TXB2 (selectivity)” value in data set [8] (LPS-activated mouse BMM) is reported as “striking selectivity”. The “inhibition of PGD2 production” value in data set [8] (LPS-activated mouse BMM, 0-100 μM, 24 h) is “inhibited PGD2 production in the sub-micromolar range dose-dependently”. The “inhibition of PGD2 levels at 1 μM” value in [8] (LPS-activated mouse BMM, 1 μM) was “significantly inhibiting”. For the same compound, in [8] (LPS-activated mouse BMM, PGD2 production), the “EC50 fold better than that estimated for compound 1” value is around 30 fold.

On to `Cc1cc(-c2ccc(C(=O)N[C@@H](Cc3ccccc3)C(N)=O)cn2)sc1C#N` [Compound 22], for which the inhibition (in general, how much of the control response was suppressed) at 50 µM in [9] turned out to be 34.6 ± 2.1%.

As to `N#Cc1ccc(-c2ccc(C(=O)N[C@@H](Cc3ccccc3)C(N)=O)cn2)s1` [Compound 20], the inhibition at 50 µM in [9] was 67.9 ± 1.6%.

Regarding `c1ccc(-c2ncc(-c3cc[nH]n3)s2)cc1` [Compound 2], in data set [3], the “effect on MEG-01S cell viability” value is “little effect”. In data set [6], the “effect on BMM cell viability” value is reported as “modest but significant effects”. The EC50 (in general, the midpoint of the concentration-response curve) in data set [8] (Mus musculus, Macrophage, 24 h, read-out: EC50 for inhibition of PGD2 production) is around 160 nM.

As to `O=C(c1ccc(-c2cccs2)nc1)N1CCC(N2C(=O)OCc3ccccc32)CC1` [Compound 13, 1-(1-(6-(thiophen-2-yl)nicotinoyl)piperidin-4-yl)-1H-benzo[d][1,3]oxazin-2(4H)-one], in data set [9], the inhibition at 50 µM stood at 87.9 ± 1.1%.

On to `c1ccc(C(OC2CCN(CCCc3nnn[nH]3)CC2)c2ccccc2)cc1` [Compound 1], for which the “effect on MEG-01S cell viability” value in [3] is “little effect”. Also, in data set [6], the “effect on BMM cell viability” value is recorded as “modest but significant effects”.

Take `NC(=O)[C@H](Cc1ccccc1)NC(=O)c1ccc(-c2ccc(C(=O)O)s2)nc1` [Compound 15]: in data set [9], the inhibition at 50 µM was 19.4 ± 1.4%.
